What was measured:
[1] = target: hTRPV1 (Homo sapiens, UniProt Q8NER1); test: FLIPR calcium influx assay, hTRPV1 WT in HEK293T; type: cell-based; conditions: 3.33 µM capsaicin
[2] = target: hTRPV1 S512F (Homo sapiens, UniProt Q8NER1, S512F); test: FLIPR calcium influx assay, hTRPV1 S512F mutant; type: cell-based; conditions: also unresponsive to pH
[3] = tested on: TRPV1; conditions: CHL at concentrations up to 250 μM; cited from earlier work

hTRPV1 S512F, sequence (Q8NER1 whole entry S512F): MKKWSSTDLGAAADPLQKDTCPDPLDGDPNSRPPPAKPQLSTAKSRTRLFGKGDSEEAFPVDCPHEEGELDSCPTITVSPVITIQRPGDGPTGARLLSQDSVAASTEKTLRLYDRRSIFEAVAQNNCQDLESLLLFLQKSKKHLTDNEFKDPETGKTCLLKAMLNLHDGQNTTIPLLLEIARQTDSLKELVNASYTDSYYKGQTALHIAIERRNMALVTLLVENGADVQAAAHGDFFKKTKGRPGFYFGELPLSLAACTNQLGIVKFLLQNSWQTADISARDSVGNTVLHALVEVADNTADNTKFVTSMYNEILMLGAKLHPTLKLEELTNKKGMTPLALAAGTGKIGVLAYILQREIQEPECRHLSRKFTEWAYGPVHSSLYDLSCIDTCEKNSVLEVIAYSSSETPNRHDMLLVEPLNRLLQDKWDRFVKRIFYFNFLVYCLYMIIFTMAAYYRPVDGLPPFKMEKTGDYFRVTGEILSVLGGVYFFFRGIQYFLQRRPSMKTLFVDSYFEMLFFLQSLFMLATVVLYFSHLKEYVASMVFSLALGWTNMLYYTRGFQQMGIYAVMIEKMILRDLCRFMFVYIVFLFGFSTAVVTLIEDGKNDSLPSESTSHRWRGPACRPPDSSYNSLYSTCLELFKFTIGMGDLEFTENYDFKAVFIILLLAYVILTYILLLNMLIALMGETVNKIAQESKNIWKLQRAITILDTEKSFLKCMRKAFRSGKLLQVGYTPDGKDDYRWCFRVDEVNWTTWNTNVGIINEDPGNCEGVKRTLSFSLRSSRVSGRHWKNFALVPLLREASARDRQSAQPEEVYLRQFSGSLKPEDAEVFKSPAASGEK
hTRPV1, sequence (Q8NER1 whole entry): as the sequence (Q8NER1 whole entry S512F) above, with F512S counted along it

Compound | activation of hTRPV1 by capsaicin [1] | response of mutant to capsaicin [2] | inhibition of TRPV1 currents evoked by 2-APB [3]
COc1cc(CNC(=O)CCCC/C=C/C(C)C)ccc1O [capsaicin] | 80–90% | unresponsive | 
CC(C)CCC[C@@H](C)[C@H]1CC[C@H]2[C@@H]3CC=C4C[C@@H](O)CC[C@]4(C)[C@H]3CC[C@]12C [CHL, cholesterol] |  |  | not inhibited
